# Source: patent US10258980B2, “Pure chelation process” (C LAB PHARMA INTERNATIONAL, S.A., priority 2014, dated 2019)
# Key:
# [1] = equal amounts of chelated copper mixed with water
# [2] = dry powder rubbed on the surface of skin
structure (smiles),measurement,setting,value
O=C(O)c1cccnc1.[Cu] [copper nicotinic acid],time to change to the oxidized blue color,[1],a few minutes
same,"disappearance from the surface of skin when rubbed, dry powder",[2],disappeared from the surface of the skin
same,"copper content by EDS, dry powder form",dry powder,22.90%
same,copper content by EDS after sample is wetted,wet sample,21.7%
same,change of EDS spectra after wetting,wet versus dry sample,did not change significantly
